Source: patent US20190321426A1, “COMBINATION THERAPIES WITH CANNABIS PLANT EXTRACT” (TIKUN OLAM LTD, priority 2016, published 2019)

Assay: Cutaneous wound (skin lesion) at the site of repeated s.c. Copaxone injection in EAE mice
Format: in vivo
Details: s.c. injection on the mice back; 7 mice/group
Experimental: The treatments were given daily, five times a week and usually continued for about 60 days. GA were given s.c (at an injection dose of 1 mg/mouse), and cannabis extracts were administrated i.p. (intraperitoneal).
In mice treated with the Copaxone only (2 out of 7 mice), a skin lesion developed on the mice back at the site of repeated Copaxone injections.

Q: With glatiramer acetate [Copaxone] as the substance, how does the “skin lesion at the site of repeated Copaxone injections” value read?
A: 2 out of 7
